According to US20230382915A1, “GCN2 AND PERK KINASE INHIBITORS AND METHODS OF USE THEREOF” (Deciphera Pharmaceuticals, LLC, priority 2021, published 2023):

Assays:
[1] = tested on: ATF4 levels in HT-1080 fibrosarcoma xenograft; test: HT-1080 fibrosarcoma xenograft PK/PD model; type: in vivo, mice
Method: The HT-1080 xenograft model was performed in compliance with all the laws, regulations and guidelines of the National Institutes of Health (NIH) and with the approval of the Animal Care and Use Committee of Labcorp (Ann Arbor, MI), an AAALAC accredited facility. Food and water were provided ad libitum. […] Female nude mice (6-7 weeks old) were inoculated subcutaneously just below the right high axilla with two million cells in Dulbecco's Phosphate Buffered Saline, using a 27-gauge needle and syringe. When tumor burdens reached 150 mm 3 on average on day 6, mice were randomly assigned into groups such that the mean tumor burden for all groups was within 10% of the overall mean tumor burden for the study population. Groups were treated on days 6-11 as follows: vehicle control (dosed orally) (n=9); Compound 2 dosed orally at 10 mg/kg BID (n=9); Compound 2 dosed orally at 5 mg/kg BID; Compound 2 dosed orally at 1 mg/kg BID (n=9) prior to sample harvest at 2, 6 and 10 h post dose on day 11. Blood samples were collected in K2EDTA tubes and processed into plasma, snap frozen in liquid nitrogen then stored at −80° C. Plasma samples were subjected to pharmacokinetic analysis using liquid chromatography coupled with tandem mass spectrometry analysis (Cayman Chemical, Ann Arbor, MI). Tumors were harvested and powdered over liquid nitrogen in covaris bags and stored at −80° C. For tissue sample processing roughly 30 mg of tumor tissue was lysed in MPER lysis buffer (Thermo Fisher Scientific, Waltham, MA) supplemented with 3× Halt protease inhibitor, 3×Halt phosphatase inhibitor, 3× Sigma phosphatase inhibitor cocktail 2 and 3×EDTA on ice then homogenized using Bead Ruptor 96 (Omni, Kennesaw, GA). […] Protein concentrations were determined using BCA protein assay kit (Thermo Fisher Scientific, Waltham, MA). […] Samples were resolved using SDS-PAGE then analyzed using Western blot to quantify ATF4 and beta-Actin (Cell Signaling Technology, Danvers, MA). […] Data was analyzed using GraphPad Prism software (GraphPad, San Diego, CA) to calculate % inhibition.

H2030 spheroids = test: Spheroid Western blot assay, H2030; type: cell-based
Method: (§1) NSCLC cell lines H358 (catalog #CRL-5807) and H2030 (catalog #CRL-5914), and fibrosarcoma cell line HT-1080 (catalog […]) were obtained from the American Type Culture Collect (ATTC, Manassas, VA). Cells were grown in RPMI-1640 medium supplemented with 10% heat-inactivated fetal bovine serum and 1% Penicillin/Streptomycin/L-Glutamine (Invitrogen, Carlsbad, CA) at 37° C., 5% CO2, and 95% humidity and maintained at 50-80% confluency until use. Cells were plated at 500,000 cells/well in 24-well Elplasia plates (Corning, Glendale, AZ) with complete growth media at 1 mL/well and incubated overnight at 37° C., 5% CO2, and 95% humidity to form spheroids. The next day, serial dilutions of test compounds were prepared in complete growth media and 500 μL existing media was removed from each well and replaced with fresh media containing compound titers. Spheroids were then incubated with test compounds for 4 hours or 24 hours under the same conditions. […] Western blots were performed to quantify phospho-GCN2 (R&D Systems, Minneapolis, MN), ATF4, CHOP, cleaved PARP, cleaved Caspase 3 and 7, and beta-Actin (Cell Signaling Technology, Danvers, MA). […]

H358 spheroids = test: Spheroid Western blot assay, H358; type: cell-based
Method: as §1

PERK enzyme = PERK enzyme (Homo sapiens (Human), UniProt Q9NZJ5); test: Biochemical assay for PERK (coupled pyruvate kinase/lactate dehydrogenase); settings: 1 mM ATP
PERK enzyme, sequence (Q9NZJ5 other isoform, or with tags, fused parts or gaps): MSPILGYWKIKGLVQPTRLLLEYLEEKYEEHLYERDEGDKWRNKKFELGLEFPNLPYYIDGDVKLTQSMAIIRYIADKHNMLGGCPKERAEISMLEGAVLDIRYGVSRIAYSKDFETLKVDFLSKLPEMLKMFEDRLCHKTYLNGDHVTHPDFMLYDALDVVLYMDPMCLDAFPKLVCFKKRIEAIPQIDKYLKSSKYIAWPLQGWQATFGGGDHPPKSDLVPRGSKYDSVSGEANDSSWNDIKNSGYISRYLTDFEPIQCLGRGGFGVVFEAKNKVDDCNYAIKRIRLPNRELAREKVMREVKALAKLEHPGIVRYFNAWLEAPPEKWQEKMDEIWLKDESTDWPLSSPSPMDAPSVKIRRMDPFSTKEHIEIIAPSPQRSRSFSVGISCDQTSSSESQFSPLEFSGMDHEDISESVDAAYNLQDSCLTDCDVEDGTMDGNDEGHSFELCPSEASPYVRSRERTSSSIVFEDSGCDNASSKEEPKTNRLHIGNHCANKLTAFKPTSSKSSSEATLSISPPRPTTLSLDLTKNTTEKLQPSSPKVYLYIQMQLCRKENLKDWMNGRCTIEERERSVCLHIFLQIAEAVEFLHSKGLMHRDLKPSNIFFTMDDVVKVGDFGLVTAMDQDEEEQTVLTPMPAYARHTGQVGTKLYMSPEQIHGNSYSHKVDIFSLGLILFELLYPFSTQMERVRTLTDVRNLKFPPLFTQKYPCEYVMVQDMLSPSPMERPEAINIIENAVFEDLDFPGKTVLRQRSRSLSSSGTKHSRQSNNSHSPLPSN
Method: Activity of PERK kinase was determined spectroscopically using a coupled pyruvate kinase/lactate dehydrogenase assay that continuously monitors the ATP hydrolysis-dependent oxidation of NADH (e.g., Schindler et al. Science (2000) 289: 1938-1942). Assays were conducted in 384-well plates ([…] final volume) using 10 nM PERK (from Beryllium), 0.25 mg/mL Myelin Basic Protein substrate, 1.5 units pyruvate kinase, 2.1 units lactate dehydrogenase, 1 mM phosphoenol pyruvate, 0.28 mM NADH and 1 mM ATP in assay buffer (100 mM Tris, pH 7.5, 15 mM MgCl2, 0.5 mM DTT, 0.004% (w/v) BSA, and 0.004% Triton X-100). Inhibition of PERK was measured by adding serial diluted test compound (final assay concentration of 1% DMSO). A decrease in absorption at 340 nm was monitored continuously for 6 hours at 30° C. on a multi-mode microplate reader (BioTek). The reaction rate was calculated using the 2-3 h time frame. The reaction rate at each concentration of compound was converted to percent inhibition using controls (i.e., reaction with no test compound and reaction with a known inhibitor) and IC50 values were calculated using software routines in Prism (GraphPad software).

Cn1cc(-c2cccc(NS(=O)(=O)c3cc(Cl)cc(CO)c3Cl)c2F)c2c(N)ncnc21 [Example 2, N-(3-(4-amino-7-methyl-7H-pyrrolo[2,3-d]pyrimidin-5-yl)-2-fluorophenyl)-2,5-dichloro-3-(hydroxymethyl)benzenesulfonamide]
upregulation of ATF4 levels compared to vehicle control ([1]; 1 mg/kg BID orally): 3 fold
upregulation of ATF4 levels compared to vehicle control ([1]; 5 mg/kg BID orally): 3.5 fold
upregulation of ATF4 levels compared to vehicle control ([1]; 10 mg/kg BID orally): 4.5 fold
upregulation of ATF4 (Western blot quantification) (H2030 spheroids): up to 20 fold
upregulation of ATF4 (Western blot quantification) (H358 spheroids): ≤ 12 fold
IC50 (PERK enzyme): ≤ 100 nM
